Columns and labels:
Assay in all cases: relative viability (nuclei count vs DMSO), 5 days (fraction); higher = more cells survive
[1] = compound: CN(C)CC1=CC(=CC=C1)N=C(C2=CC=CC=C2)C3=C(NC4=C3C=CC(=C4)C(=O)N(C)C)O + CC1(C)CCC(c2ccc(Cl)cc2)=C(CN2CCN(c3ccc(C(=O)NS(=O)(=O)c4ccc(N[C@H](CCN5CCOCC5)CSc5ccccc5)c(S(=O)(=O)C(F)(F)F)c4)cc3)CC2)C1 [Navitoclax] (partner 0.5 µM)
Outline: (§1)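 Lung cancer cell lines were pin-tool dosed in 1536-well plates on the day after seeding, with either a lone drug or a fixed anchor-drug dose plus five library-drug doses (not always all listed) in √10 steps. Nuclei were counted on 4× images after 5 days. Relative viability is the ratio of treated-well to vehicle-well nuclei counts, with each value a median of duplicate plates.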

[2] = compound: CN(C)CC1=CC(=CC=C1)N=C(C2=CC=CC=C2)C3=C(NC4=C3C=CC(=C4)C(=O)N(C)C)O + CCNC(=O)c1noc(-c2cc(C(C)C)c(O)cc2O)c1-c1ccc(CN2CCOCC2)cc1 [Luminespib] (partner 0.01 µM)
Outline: as §1

[3] = compound: CN(C)CC1=CC(=CC=C1)N=C(C2=CC=CC=C2)C3=C(NC4=C3C=CC(=C4)C(=O)N(C)C)O + COc1cc2c(Oc3ccc(NC(=O)C4(C(=O)Nc5ccc(F)cc5)CC4)cc3F)ccnc2cc1OCCCN1CCOCC1 [Foretinib] (partner 0.25 µM)
Outline: as §1

[4] = compound: CN(C)CC1=CC(=CC=C1)N=C(C2=CC=CC=C2)C3=C(NC4=C3C=CC(=C4)C(=O)N(C)C)O + C[C@]1(O)C[C@@H](c2nc(-c3ccc4ccc(-c5ccccc5)nc4c3)c3c(N)nccn32)C1 [Linsitinib] (partner 1 µM)
Outline: as §1

| Cell Line | relative viability ([1]; first compound 0.08 µM) | relative viability ([1]; first compound 0.253 µM) | relative viability ([1]; first compound 0.8 µM) | relative viability ([1]; first compound 2.53 µM) | relative viability ([1]; first compound 8 µM) | relative viability ([2]; first compound 0.08 µM) | relative viability ([2]; first compound 0.253 µM) | relative viability ([2]; first compound 0.8 µM) | relative viability ([2]; first compound 2.53 µM) | relative viability ([2]; first compound 8 µM) | relative viability ([3]; first compound 0.08 µM) | relative viability ([3]; first compound 0.253 µM) | relative viability ([3]; first compound 0.8 µM) | relative viability ([3]; first compound 2.53 µM) | relative viability ([3]; first compound 8 µM) | relative viability ([4]; first compound 0.08 µM) | relative viability ([4]; first compound 0.253 µM) | relative viability ([4]; first compound 0.8 µM) | relative viability ([4]; first compound 2.53 µM) | relative viability ([4]; first compound 8 µM) |
| --- | --- | --- | --- | --- | --- | --- | --- | --- | --- | --- | --- | --- | --- | --- | --- | --- | --- | --- | --- | --- |
| NCI-H1975 | 1.07 | 1.06 | 0.989 | 1.08 | 1.06 | 0.22 | 0.197 | 0.0911 | 0.324 | 0.161 | 0.863 | 0.984 | 0.888 | 0.88 | 0.78 | 0.935 | 0.999 | 0.824 | 0.871 | 0.855 |
| NCI-H1993 | 0.935 | 1.02 | 0.885 | 0.933 | 1.09 | 0.817 | 0.796 | 0.748 | 0.939 | 0.924 | 0.721 | 0.811 | 0.81 | 0.824 | 0.935 | 0.716 | 0.787 | 0.7 | 0.737 | 0.799 |
| NCI-H2009 | 1.14 | 1.12 | 1.17 | 1.16 | 1.17 | 1.04 | 0.999 | 1.11 | 0.96 | 1.05 | 1.17 | 1.22 | 1.21 | 1.23 | 1.11 | 1.19 | 1.21 | 1.21 | 1.12 | 1.19 |
| NCI-H2023 | 1.02 | 0.97 | 0.952 | 0.872 | 0.984 | 0.75 | 0.75 | 0.769 | 0.577 | 0.483 | 0.766 | 0.731 | 0.785 | 0.737 | 0.602 | 0.625 | 0.607 | 0.533 | 0.563 | 0.625 |
| NCI-H2085 | 1.24 | 1.16 | 1.06 | 1.16 | 1.18 | 0.591 | 0.533 | 0.477 | 0.527 | 0.404 | 1 | 0.865 | 1.15 | 1.13 | 0.954 | 0.897 | 0.844 | 0.875 | 0.92 | 0.916 |
| NCI-H2087 | 1.02 | 0.942 | 1.17 | 1.03 | 0.9 | 0.164 | 0.197 | 0.232 | 0.167 | 0.172 | 1 | 1.07 | 1.19 | 1.09 | 0.955 | 0.981 | 1.01 | 1.06 | 0.828 | 0.966 |
| NCI-H2126 | 0.899 | 0.898 | 0.821 | 0.913 | 0.892 | 0.993 | 0.858 | 0.937 | 0.883 | 0.886 | 1.1 | 1.13 | 1.17 | 1.16 | 1.02 | 0.701 | 0.668 | 0.679 | 0.759 | 0.686 |
| NCI-H2228 | 0.868 | 0.909 | 0.731 | 0.803 | 0.663 | 0.134 | 0.152 | 0.142 | 0.164 | 0.137 | 0.946 | 0.904 | 0.77 | 0.88 | 0.708 | 0.66 | 0.541 | 1.12 | 0.63 | 0.582 |
| NCI-H2347 | 0.898 | 0.878 | 0.67 | 0.775 | 0.871 | 0.355 | 0.444 | 0.34 | 0.383 | 0.298 | 0.969 | 1.02 | 0.809 | 1.11 | 1 | 1.04 | 0.995 | 0.994 | 1.03 | 1.05 |
| NCI-H2405 | 1.17 | 0.759 | 1.1 | 0.786 | 0.742 | 0.992 | 0.652 | 0.681 | 0.614 | 0.552 | 1.04 | 1.08 | 1.01 | 0.992 | 1.04 | 1.01 | 0.845 | 1.03 | 0.867 | 0.76 |
| NCI-H3122 | 1.01 | 1.01 | 1.06 | 1.03 | 1.04 | 0.0882 | 0.0788 | 0.075 | 0.142 | 0.0907 | 0.995 | 0.983 | 1.01 | 1.02 | 0.966 | 1.08 | 1.05 | 1.08 | 0.972 | 1.05 |
| PC-3 [JPC-3] | 0.787 | 0.703 | 0.643 | 0.84 | 0.843 | 0.705 | 0.69 | 0.707 | 0.751 | 0.695 | 1.06 | 1.09 | 0.916 | 1.03 | 1.06 | 0.985 | 0.907 | 0.883 | 0.967 | 1.06 |
| PC-14 | 1.08 | 1.03 | 0.965 | 1.03 | 1.07 | 0.206 | 0.131 | 0.146 | 0.145 | 0.102 | 0.9 | 0.903 | 1.02 | 0.934 | 0.951 | 0.98 | 0.954 | 0.96 | 0.874 | 0.998 |
| RERF-LC-KJ | 1.06 | 0.645 | 0.833 | 1.03 | 0.866 | 1.34 | 1.4 | 1.25 | 1.13 | 1.23 | 0.865 | 0.894 | 0.873 | 0.833 | 0.907 | 0.912 | 0.93 | 0.81 | 0.948 | 0.87 |
| SK-LU-1 | 1.05 | 0.898 | 0.778 | 0.651 | 0.791 | 0.226 | 0.191 | 0.21 | 0.188 | 0.225 | 0.891 | 0.881 | 0.857 | 0.651 | 0.581 | 1.05 | 1.2 | 1.27 | 1.17 | 0.77 |
| SK-MES-1 | 1.25 | 1.26 | 1.09 | 1.15 | 1.1 | 0.544 | 0.749 | 0.678 | 0.834 | 0.521 | 0.84 | 0.975 | 0.844 | 0.87 | 0.901 | 1.1 | 1 | 1.07 | 0.918 | 0.988 |
| SW 1573 | 1.01 | 0.822 | 0.844 | 0.906 | 1.01 | 0.162 | 0.269 | 0.207 | 0.296 | 0.183 | 0.919 | 0.808 | 0.759 | 0.867 | 0.973 | 0.735 | 0.829 | 0.731 | 0.73 | 0.731 |
| UMC-11 | 0.357 | 0.269 | 0.264 | 0.328 | 0.32 | 0.982 | 0.941 | 1.08 | 0.974 | 0.821 | 1.01 | 1.07 | 1.06 | 1.05 | 0.997 | 1.01 | 0.986 | 0.985 | 0.999 | 0.926 |
